Test results as given in patent US20230219965A1 (KSQ Therapeutics, Inc., priority 2020, published 2023).
Where two headings read alike, the source gives them in different places.

Legend:
USP1/UAF1 enzyme = USP1/UAF1 enzyme (Homo sapiens, UniProt O94782); assay: USP1/UAF1 deubiquitination assay (ubiquitin-rhodamine 110 substrate); type: biochemical; conditions: read-out: USP1 IC50 (Ub-Rho)
Method in brief: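 0.05 nM USP1/UAF1 was preincubated 10 min with compounds (dose response from 10 μM) in 50 mM Tris-HCl pH 7.8, 0.5 mM EDTA, 0.01% BSA, 1 mM DTT, 0.01% Tween-20. 150 nM ubiquitin-rhodamine 110 started the reaction, read kinetically 30 min at Ex480/Em540; IC50 by four-parameter fit versus no-enzyme and DMSO controls.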

[1] = ADME solubility determination in PBS at pH 2.0 and pH 7.4; type: physicochemical; conditions: phosphate buffered saline, 25 °C, thermodynamic from solid
Method in brief: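 Dried 10 mM DMSO stock residues taken up in PBS pH 7.4 or pH 2.0, shaken 24 h at 25° C. After centrifugation, supernatant quantified by LC-MS/MS against a standard of known concentration, with a dilution factor applied.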

[2] = Liver microsomal metabolic stability, rat liver microsomes (RLM); conditions: rat, liver microsomes, t1/2 (min) in RLM, 1 μM compound, 1 mg/mL microsomes, NADPH
[3] = system: Ub-PCNA levels in the nucleus of ES2 cells (USP1 activity); assay: ES2 Ub-PCNA immunofluorescence (IF) assay; type: cell-based; conditions: Homo sapiens, read-out: USP1 IC50 (Ub-PCNA)
Method in brief: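 Cells plated overnight, then compound-treated for 3 h at 37° C (0.3% DMSO final), methanol-fixed and stained with anti-Ub-PCNA plus DAPI. Per-nucleus Ub-PCNA intensity imaged; cells above the 95% cutoff of untreated wells counted as positive, and percent positive cells used to derive AC50.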

[4] = Liver microsomal metabolic stability, human liver microsomes (HLM); conditions: human, liver microsomes
[5] = pH 2, aqueous buffer, PBS pH 2.0, 25° C., read-out: Solubility at pH 2.0
[6] = pH 7.4, aqueous buffer, PBS pH 7.4, 25° C., read-out: Solubility at pH 7.4
[7] = ES-2, ES2 cells, 3 hours, Ub-PCNA immunofluorescence

Chain of USP1/UAF1 enzyme (O94782 whole entry): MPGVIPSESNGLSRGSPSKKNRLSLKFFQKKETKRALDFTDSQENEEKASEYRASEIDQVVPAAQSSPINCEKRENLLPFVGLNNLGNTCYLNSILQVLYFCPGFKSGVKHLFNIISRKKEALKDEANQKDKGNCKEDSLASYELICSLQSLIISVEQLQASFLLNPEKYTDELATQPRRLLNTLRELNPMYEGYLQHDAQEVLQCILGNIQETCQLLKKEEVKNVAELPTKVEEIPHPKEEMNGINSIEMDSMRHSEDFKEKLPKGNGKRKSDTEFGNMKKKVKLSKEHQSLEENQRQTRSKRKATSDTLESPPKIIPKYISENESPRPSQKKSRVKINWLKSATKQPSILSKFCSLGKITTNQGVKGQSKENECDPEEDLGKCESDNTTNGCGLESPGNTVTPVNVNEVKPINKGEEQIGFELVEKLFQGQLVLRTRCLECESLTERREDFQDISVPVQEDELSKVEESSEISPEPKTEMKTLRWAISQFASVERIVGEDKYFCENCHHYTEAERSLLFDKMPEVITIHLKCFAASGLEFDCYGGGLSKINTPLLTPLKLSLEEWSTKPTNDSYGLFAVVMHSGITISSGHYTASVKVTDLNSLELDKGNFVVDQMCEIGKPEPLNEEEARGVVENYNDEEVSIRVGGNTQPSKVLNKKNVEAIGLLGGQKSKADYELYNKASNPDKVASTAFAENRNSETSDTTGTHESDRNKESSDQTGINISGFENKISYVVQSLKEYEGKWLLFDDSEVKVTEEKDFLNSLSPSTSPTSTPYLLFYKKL
Chain of USP1/UAF1 enzyme (Q8TAF3 whole entry partner): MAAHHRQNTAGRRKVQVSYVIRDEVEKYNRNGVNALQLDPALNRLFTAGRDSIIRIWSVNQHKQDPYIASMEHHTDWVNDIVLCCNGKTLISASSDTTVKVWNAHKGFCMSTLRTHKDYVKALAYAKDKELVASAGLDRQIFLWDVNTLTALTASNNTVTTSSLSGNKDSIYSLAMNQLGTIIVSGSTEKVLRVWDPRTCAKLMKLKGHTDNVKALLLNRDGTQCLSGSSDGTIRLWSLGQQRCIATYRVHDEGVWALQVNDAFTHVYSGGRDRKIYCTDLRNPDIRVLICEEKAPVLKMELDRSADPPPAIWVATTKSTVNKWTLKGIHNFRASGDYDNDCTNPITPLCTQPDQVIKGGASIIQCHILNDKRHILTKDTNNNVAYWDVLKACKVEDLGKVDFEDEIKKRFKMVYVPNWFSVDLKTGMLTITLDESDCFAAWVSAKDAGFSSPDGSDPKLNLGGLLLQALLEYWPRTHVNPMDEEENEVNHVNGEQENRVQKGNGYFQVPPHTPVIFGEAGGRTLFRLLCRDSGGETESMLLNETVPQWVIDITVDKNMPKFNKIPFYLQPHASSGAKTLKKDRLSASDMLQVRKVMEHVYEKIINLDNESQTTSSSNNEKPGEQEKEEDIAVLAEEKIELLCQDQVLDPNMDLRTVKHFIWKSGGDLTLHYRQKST

Row | SMILES | IC50 (USP1/UAF1 enzyme) | solubility at 24 h [1, 5] | solubility at 24 h [1, 6] | half-life at 1 μM [2] | IC50 [3, 7] | half-life at 1 μM [4] | IC50 ([3]; ES-2, 3 h)
1 | COc1cc(CN2C(=O)CCn3nc(-c4c(Cl)cnn4C(C)C)cc32)ccc1-c1nc(C(F)(F)F)cn1C(C)C [Example 109] | < 100 nM | < 10 µM | < 10 µM | > 25 min | < 100 nM | > 25 min | –
2 | COc1ncnc(C2CC2)c1-c1nc2n(n1)CCC(=O)N2Cc1ccc(-c2nc(C(F)(F)F)cn2C)cc1 [Example 43] | < 100 nM | ≥ 10 µM | < 10 µM | > 25 min | 100 to 500 nM | > 25 min | –
3 | COc1cc(C(F)(F)F)nn1-c1ccc(CN2C(=O)CCn3nc(-c4c(Cl)cnn4C(C)C)cc32)cc1F [Example 14, 2-(4-chloro-1-isopropyl-1H-pyrazol-5-yl)-4-(3-fluoro-4-(5-methoxy-3-(trifluoromethyl)-1H-pyrazol-1-yl)benzyl)-6,7-dihydropyrazolo[1,5-a]pyrimidin-5(4H)-one] | < 100 nM | < 10 µM | < 10 µM | > 25 min | < 100 nM | > 25 min | –
4 | COc1ncnc(C2CC2)c1-c1cc2n(n1)CCC(=O)N2Cc1ccc(-c2nc(C(F)(F)F)cn2C)cc1 [Example 1, 2-(4-cyclopropyl-6-methoxypyrimidin-5-yl)-4-(4-(1-methyl-4-(trifluoromethyl)-1H-imidazol-2-yl)benzyl)-6,7-dihydropyrazolo[1,5-α]pyrimidin-5(4H)-one] | < 100 nM | ≥ 10 µM | < 10 µM | > 25 min | 100 to 500 nM | > 25 min | –
5 | COc1cc(C(F)(F)F)nn1-c1ccc(CN2C(=O)CCn3nc(-c4c(Cl)cnn4C(C)C)cc32)cc1 [Example 96] | < 100 nM | < 10 µM | < 10 µM | > 25 min | < 100 nM | > 25 min | –
6 | CCn1cc(C(F)(F)F)nc1-c1ccc(CN2C(=O)CCn3nc(-c4c(OC(F)F)ncnc4C4CC4)nc32)cc1F [Example 370, 2-(4-cyclopropyl-6-(difluoromethoxy)pyrimidin-5-yl)-4-(4-(1-ethyl-4-(trifluoromethyl)-1H-imidazol-2-yl)-3-fluorobenzyl)-6,7-dihydro-[1,2,4]triazolo[1,5-a]pyrimidin-5(4H)-one] | < 100 nM | < 10 µM | < 10 µM | > 25 min | < 100 nM | > 25 min | –
7 | CCn1cc(C(F)(F)F)nc1-c1ccc(NC2CCCCn3nc(-c4c(Cl)cnn4C(C)C)cc32)cc1 (stereo not drawn) [Example 357, 2-(4-chloro-1-isopropyl-1H-pyrazol-5-yl)-N-(4-(1-ethyl-4-(trifluoromethyl)-1H-imidazol-2-yl)phenyl)-5,6,7,8-tetrahydro-4H-pyrazolo[1,5-α]azepin-4-amine] | < 100 nM | < 10 µM | < 10 µM | < 25 min | < 100 nM | < 25 min | –
8 | COc1cc([C@@H](C)N2C(=O)CCn3nc(-c4c(OC)ncnc4C4CC4)cc32)ccc1-c1nc(C(F)(F)F)cn1C(C)C [Example 129] | < 100 nM | ≥ 10 µM | < 10 µM | < 25 min | < 100 nM | > 25 min | –
9 | CC(C)n1cc(C(F)(F)F)nc1-c1ccc([C@@H](C)N2C(=O)CCn3nc(-c4c(Cl)cnn4C(C)C)nc32)cc1 [Example 178] | < 100 nM | ≥ 10 µM | < 10 µM | < 25 min | < 100 nM | < 25 min | –
10 | COc1ncnc(C2CC2)c1-c1cc2n(n1)CCC(=O)N2Cc1ccc(-c2nc(C(F)(F)F)cn2C)c(F)c1 [Example 2, 2-(4-cyclopropyl-6-methoxypyrimidin-5-yl)-4-(3-fluoro-4-(1-methyl-4-(trifluoromethyl)-1H-imidazol-2-yl)benzyl)-6,7-dihydropyrazolo[1,5-a]pyrimidin-5(4H)-one] | < 100 nM | < 10 µM | < 10 µM | > 25 min | 100 to 500 nM | > 25 min | –
11 | CC(C)n1cc(C(F)(F)F)nc1-c1ccc(CN2C(=O)CCn3nc(-c4c(Cl)cnn4C(C)C)nc32)cc1F [Example 40] | < 100 nM | < 10 µM | < 10 µM | > 25 min | 100 to 500 nM | > 25 min | –
12 | CCn1cc(C(F)(F)F)nc1-c1ccc(CN2C(=O)CCn3nc(-c4c(OC)ncnc4C4CC4)nc32)cc1Cl [Example 175] | < 100 nM | ≥ 10 µM | ≥ 10 µM | > 25 min | < 100 nM | > 25 min | –
13 | CCn1cc(C(F)(F)F)nc1-c1ccc(OC2CCCn3nc(-c4c(Cl)cnn4C(C)C)cc32)cc1 (stereo not drawn) [Example 261, 2-(4-chloro-1-isopropyl-1H-pyrazol-5-yl)-4-(4-(1-ethyl-4-(trifluoromethyl)-1H-imidazol-2-yl)phenoxy)-4,5,6,7-tetrahydropyrazolo[1,5-α]pyridine] | < 100 nM | < 10 µM | < 10 µM | > 25 min | < 100 nM | > 25 min | –
14 | CCn1cc(C(F)(F)F)nc1-c1ccc(CN2C(=O)[C@H](C)Cn3nc(-c4c(OC)ncnc4C4CC4)nc32)cc1F (single isomer, unassigned) [Example 348] | < 100 nM | ≥ 10 µM | ≥ 10 µM | > 25 min | < 100 nM | > 25 min | –
15 | CCn1cc(C(F)(F)F)nc1-c1ccc(CN2C(=O)CCn3nc(-c4c(Cl)cnn4C(C)C)nc32)cn1 [Example 186] | < 100 nM | < 10 µM | < 10 µM | > 25 min | 100 to 500 nM | > 25 min | –
16 | CC(C)n1ncc(Cl)c1-c1cc2n(n1)CCC(=O)N2Cc1ccc(-c2ncccc2OC2CC2)c(Cl)c1 [Example 290] | < 100 nM | ≥ 10 µM | < 10 µM | < 25 min | 100 to 500 nM | < 25 min | –
17 | CCn1cc(C(F)(F)F)nc1-c1ccc(C(C)N2C(=O)CCn3nc(-c4c(OC)ncnc4C4CC4)cc32)cc1F (stereo not drawn) [Example 120] | < 100 nM | < 10 µM | < 10 µM | > 25 min | < 100 nM | > 25 min | –
18 | CC(C)n1ncc(Cl)c1-c1cc2n(n1)CCC(=O)N2Cc1ccc(-c2nn(C)cc2C#N)cc1 [Example 133] | < 100 nM | < 10 µM | < 10 µM | > 25 min | 100 to 500 nM | > 25 min | –
19 | COc1cc(CN2C(=O)CCn3nc(-c4c(Cl)cnn4C(C)C)nc32)ccc1-c1nc(C(F)(F)F)cn1C(C)C [Example 165] | < 100 nM | < 10 µM | < 10 µM | > 25 min | 100 to 500 nM | > 25 min | –
20 | CCn1cc(C(F)(F)F)nc1-c1ccc([C@@H](C)N2C(=O)CCn3nc(-c4c(Cl)cnn4C(C)C)nc32)cc1OC [Example 180] | < 100 nM | < 10 µM | < 10 µM | < 25 min | 100 to 500 nM | < 25 min | –
21 | CCn1cc(C(F)(F)F)nc1-c1ccc(CN2C(=O)CCn3nc(-c4c(Cl)cnn4C(C)C)cc32)cn1 [Example 111] | < 100 nM | < 10 µM | < 10 µM | > 25 min | 100 to 500 nM | > 25 min | –
22 | CCn1cc(C(F)(F)F)nc1-c1ccc(Cn2c(=O)ccn3nc(-c4c(OC(F)F)ncnc4C4CC4)nc23)cc1 [Example 345] | < 100 nM | < 10 µM | < 10 µM | > 25 min | < 100 nM | > 25 min | –
23 | COc1ccc(C)nc1-c1ccc(CN2C(=O)CCn3nc(-c4c(Cl)cnn4C(C)C)cc32)cc1Cl [Example 309] | < 100 nM | ≥ 10 µM | < 10 µM | < 25 min | 100 to 500 nM | < 25 min | –
24 | CCn1cc(C(F)(F)F)nc1-c1ccc(CNC2CCCn3nc(-c4c(Cl)cnn4C(C)C)cc32)cc1 (stereo not drawn) [Example 330, 2-(4-chloro-1-isopropyl-1H-pyrazol-5-yl)-N-(4-(1-ethyl-4-(trifluoromethyl)-1H-imidazol-2-yl)benzyl)-4,5,6,7-tetrahydropyrazolo[1,5-α]pyridin-4-amine] | < 100 nM | ≥ 10 µM | < 10 µM | < 25 min | – | < 25 min | < 100 nM
